Experimental data reported in patent publication US12612441B2, “Polypeptide and therapeutic uses thereof” (Vitalixir (Beijing) Co., Ltd, priority 2019, dated 2026).

Test system: db/db mice
Experiment: Blood glucose lowering in db/db mice (Example 12)
Assay type: in vivo
Conditions: db/db male mice, 35 nmol/kg subcutaneous single dose, 0-10 hours, AUC, vs PBS control; FIG. 9
Description: The feeding conditions of db/db mice were the same as described in Example 7. The db/db male mice (GemPharmatech, 7 weeks old) had one-week to acclimate to the environmental conditions of the test facility. Three days before the test (−3 day˜−1 day) baseline blood glucose and body weight were recorded. The mice were randomly grouped based on three-day blood glucose and body weight, with 6 mice in each group. Mice were injected subcutaneously with PBS (5 ml/kg, control group) or peptide compounds 42, 115, 178 (35 nmol/kg) at 10:00 in the morning. Blood was collected at 0 hour before drug administration, and 1.5, 4, 7, and 10 hours after administration, and blood glucose was measured using a OneTouch glucose meter (Johnson & Johnson) and test strips. By using time as the abscissa and the blood glucose value at different time points as the ordinate blood glucose curves were drawn, and the areas under the curve (AUC) were calculated to compare the hypoglycemic effects and duration of action of the peptide compounds.

For “Y(aib)EGTFTSDLSI(aib)LEKEAVRLFIEWLLAGGPS-NH2 (YXEGTFTSDLSIXLEKEAVRLFIEWLLAGGPS; Aib; C-terminal amide; MOD_RES (2)..(2) X=aminoisobutyric aicd; MOD_RES (13)..(13) X=aminoisobutyric aicd; MOD_RES (32)..(32) AMIDATION, C-termianl amidation) [Compound 178]”, which blood glucose is on record?
Its blood glucose is “significantly reduced blood glucose”.

With “Y(aib)EGTFTSDLSI(aib)LEKEAVRLFIEWLLAG-NH2 (YXEGTFTSDLSIXLEKEAVRLFIEWLLAG; Aib; C-terminal amide; MOD_RES (2)..(2) X=aminoisobutyric aicd; MOD_RES (13)..(13) X=aminoisobutyric aicd; MOD_RES (29)..(29) AMIDATION, C-termianl amidation) [Compound 42]” as the substance, how does the blood glucose read?
Its blood glucose is “significantly reduced blood glucose”.

For “Y(aib)EGTFTSDLSI(aib)LEKEAVRLFIEWLLAGGPSSGA-NH2 (YXEGTFTSDLSIXLEKEAVRLFIEWLLAGGPSSGA; Aib; C-terminal amide; MOD_RES (2)..(2) X=aminoisobutyric aicd; MOD_RES (13)..(13) X=aminoisobutyric aicd; MOD_RES (35)..(35) AMIDATION, C-termianl amidation) [Compound 115]”, which blood glucose is on record?
Its blood glucose is “significantly reduced blood glucose”.
